Measured values: the NIST ThermoML archive (doi:10.1016/j.jct.2008.03.013)
Values joined by “and” are separate entries in the source; they are usually repeats but may differ in a detail not shown here. Equal entries are not always repeated.

Legend:
[1] = 100 kPa, Liquid
[2] = refractive index (Na D-line) (dimensionless); details: 298.15 K; 101.33 kPa; Liquid; Standard Abbe refractometry
[3] = refractive index (Na D-line) (dimensionless); xn = mol fraction of the nth substance listed; details: 298.15 K, 100 kPa, Liquid, Standard Abbe refractometry
[4] = xn = mol fraction of the nth substance listed; details: 100 kPa, Liquid

CCCCn1cc[n+](C)c1.COS(=O)(=O)[O-] [1-butyl-3-methylimidazolium methyl sulfate]
[1]
Details | mass density [kg/m3] | viscosity
298.15 K | 1213.43 | 182.3 mPa·s
313.15 K | 1203.48 | 84.8 mPa·s and 84.7 mPa·s
328.15 K | 1193.59 | 45.35 mPa·s

Details | refractive index
[2] | 1.47792

CCCCn1cc[n+](C)c1.COS(=O)(=O)[O-] [1-butyl-3-methylimidazolium methyl sulfate] + CCO
[3]
Details | refractive index
x2 = 0 | 1.47792
x2 = 0.0651 | 1.4759
x2 = 0.0922 | 1.475
x2 = 0.2011 | 1.4711
x2 = 0.3091 | 1.46633
x2 = 0.402 | 1.46114
x2 = 0.491 | 1.45512
x2 = 0.5788 | 1.4478
x2 = 0.7142 | 1.43243
x2 = 0.807 | 1.41714
x2 = 0.895 | 1.39734
x2 = 0.9445 | 1.38212

[4]
Details | mass density, 298.15 K [kg/m3] | mass density, 313.15 K [kg/m3] | mass density, 328.15 K [kg/m3] | viscosity, 298.15 K [mPa·s] | viscosity, 313.15 K [mPa·s] | viscosity, 328.15 K [mPa·s]
x2 = 0 | 1213.43 | 1203.48 | 1193.59 | 182.3 | 84.7 | 45.35
x2 = 0.0651 | 1205.77 | 1195.71 | 1185.73 | 156.7 | 74.9 | 40.76
x2 = 0.0922 | 1202.49 | 1192.4 | 1182.4 | 131.9 | 64.1 | 35.9
x2 = 0.2011 | 1187.41 | 1177.24 | 1167.12 | 88.6 | 46.28 | 27.16
x2 = 0.3091 | 1169.23 | 1158.88 | 1148.61 | 56.32 | 31.64 | 19.89
x2 = 0.402 | 1150.09 | 1139.56 | 1129.14 | 37.85 | 22.35 | 14.41
x2 = 0.491 | 1127.58 | 1117.04 | 1106.55 | 25.04 | 15.62 | 10.53
x2 = 0.5788 | 1100.78 | 1089.92 | 1079.14 | 16.22 | 10.58 | 7.263
x2 = 0.7142 | 1043.7 | 1032.43 | 1021.2 | 7.427 | 5.271 | 4.019
x2 = 0.807 | 989.09 | 977.5 | 965.92 | 4.349 | 3.197 | 2.503
x2 = 0.895 | 917.29 | 905.22 | 893.02 | 2.465 | 1.863 | 1.432
x2 = 0.9445 | 863.52 | 851.11 | 838.48 | 1.733 | 1.319 | 1.033
